Assay results reported in ChEMBL document CHEMBL5046233, “Nitroxoline and its derivatives are potent inhibitors of metallo-β-lactamases” (Eur J Med Chem, 2022).

Key:
[1] = system: Bacteria; assay: Inhibition of recombinant VIM-1 (unknown origin) using fluorocillin as substrate at 30 uM incubated for 30 mins by fluorescence based assay
[2] = system: Bacteria; assay: Inhibition of recombinant IMP-1 (unknown origin) using fluorocillin as substrate at 10 uM incubated for 30 mins by fluorescence based assay
[3] = system: Klebsiella pneumoniae; assay: Potentiation of ciprofloxacin-induced antibacterial activity against Klebsiella pneumoniae clinical isolate T2301 expressing NDM-1 assessed as ciprofloxacin MIC at 32 mg/L by CLSI protocol based broth microdilution assay; type: functional
[4] = system: Escherichia coli; assay: Potentiation of meropenem-induced antibacterial activity against Escherichia coli clinical isolate T2228 expressing VIM-1 assessed as meropenem MIC at 32 mg/L by CLSI protocol based broth microdilution assay; type: functional
[5] = system: Serratia marcescens; assay: Potentiation of imipenem-induced antibacterial activity against Serratia marcescens T2352 expressing NDM-1 assessed as fold change in imipenem MIC at 32 mg/L by CLSI protocol based broth microdilution assay; type: functional
[6] = system: Escherichia coli; assay: Potentiation of imipenem-induced antibacterial activity against Escherichia coli clinical isolate T2228 expressing VIM-1 assessed as imipenem MIC at 32 mg/L by CLSI protocol based broth microdilution assay; type: functional
[7] = system: Escherichia coli; assay: Synergistic antibacterial activity against Escherichia coli T2544 expressing VIM-1 assessed as fractional inhibitory concentration index in presence of imipenem by checkerboard assay; type: functional
[8] = system: Pseudomonas aeruginosa; assay: Potentiation of imipenem-induced antibacterial activity against Pseudomonas aeruginosa T1098 expressing IMP-7 assessed as imipenem MIC at 32 mg/L by CLSI protocol based broth microdilution assay; type: functional
[9] = system: Pseudomonas aeruginosa; assay: Potentiation of imipenem-induced antibacterial activity against Pseudomonas aeruginosa T2282 expressing VIM-2 assessed as imipenem MIC at 32 mg/L by CLSI protocol based broth microdilution assay; type: functional
[10] = system: Pseudomonas aeruginosa; assay: Potentiation of imipenem-induced antibacterial activity against Pseudomonas aeruginosa T2283 expressing VIM-2 assessed as imipenem MIC at 32 mg/L by CLSI protocol based broth microdilution assay; type: functional

N#CCN(Cc1ccccc1)Cc1cc([N+](=O)[O-])c2cccnc2c1O
inhibition [1]: 100%
inhibition [2]: 93%
MIC [3]: 0.128 µg/mL
MIC [4]: 0.125 µg/mL
fold change (FC) [5]: 1024
MIC [6]: 0.001 µg/mL
fractional inhibitory concentration index (FICI) [7]: 0.265
MIC [8]: 0.016 µg/mL
MIC [9]: 0.008 µg/mL
MIC [10]: 0.001 µg/mL
